# Results reported in patent US11279708B2, “Amidino- and amino-rocaglates as novel translation inhibitors and anticancer agents” (priority 2019, dated 2022).
# pIC50: −log10 of the molar value.
# What was measured:
# [1] = tested on: cap-dependent translation; assay: in vitro translation of (AG)10- and (UC)10-FF/HCV/Ren mRNA reporters in Krebs-2 extracts; assay type: biochemical; settings: cap-proximal (AG)10 or (UC)10
# Description: Rocaglates show differing mRNA targeting spectra in translation assays. The in vitro experiments described above investigating the rocaglate-mediated inhibition of cap-dependent translation were performed at a fixed rocaglate concentration (2 μM) using a generic bicistronic mRNA reporter in Krebs-2 cell-free translation extracts (FIG. 19C). To better assess the consequences of eIF4A:polypurine clamping on the initiation process, we designed a series of bicistronic reporters harboring cap-proximal polypurine tracks of varying lengths in their 5′ leader region (FIG. 22A). […] We reasoned that these reporters would provide a sensitized readout for rocaglate-induce clamping of eIF4A at this location.
# We next tested the response of mRNA reporters containing cap-proximal (AG)10 or (UC)10 sequences (FIG. 22A). […] The difference in activity observed between CR-1-31-B (23) and silvestrol 1 was not restricted to cap-proximal polypurine tracks, but also observed with reporters where the polypurine/polypyrimidine tracks were situated 15 nt downstream from the cap (FIGS. 24A and 24B).
# (§1) In Vitro Translation Assays. In vitro translation assays performed in Krebs-2 cell extracts were supplemented with 5 mM MgCl2, 30 mM Tris-HCl (pH 7.5), 1.5 mM ATP, 0.1 mM GTP, 0.6 mM CTP, 10 mM dipotassium creatine phosphate, 80 μg/mL creatine kinase, and 0.04 mM amino acids. The specified mRNA reporters were added to each reaction at a final concentration of 10 ng/μL. The translation reactions were incubated with or without compound for 60 minutes at 30° C. prior to the measurement of luciferase activities.
# FIGS. 23A-23C. The presence of polypurines bases in mRNA 5′ leader regions are not universal predictors of rocaglate-responsiveness. FIG. 23A. Schematic diagram of FF/HCV/Ren mRNA reporters containing cap-proximal (AG) or (UC) dinucleotide repeats. 23B. Firefly and renilla luciferase activity in response to the indicated CR-1-31-B (23) concentrations (relative to DMSO controls) in Krebs-2 extracts programmed with 4 ng/uL of the indicated mRNAs. n=3±SD. 23C. Dose response of the indicated compounds in Krebs-2 extracts programmed with 4 ng/μL of the indicated mRNAs. n=3± SD.
# FIG. 23. Dose-response of (AG)10- and (UC)10-FF/HCV/Ren mRNAs to CMLD011167, hippuristanol and pateamine A in vitro. Firefly and renilla luciferase activity in response to the indicated compound concentrations (relative to DMSO controls) in Krebs-2 extracts programmed with 4 ng/μL of the indicated mRNAs. n=3± SD.
# [2] = tested on: HEK 293 cells; assay: in cellula translation of transfected (AG)10- and (UC)10-FF/HCV/Ren mRNA; assay type: cell-based; settings: compound added 1 h after mRNA transfection, 6 h exposure
# Description: We next asked if differences in behavior among rocaglates towards the (AG)10- and (UC)10-reporters observed in vitro also extended in cellula (FIG. 26B). This was important since in cells, mRNA transcripts need to compete for components of the translation initiation machinery from a complex cellular mRNA pool and this scenario is difficult to recapitulate in experiments using cell-free extracts. Following mRNA transfections, cells were exposed to compound and luciferase activity determined.
# RNA Transfections. HEK 293 cells were transfected in a 24 well plate with 0.25 μg/well of in vitro synthesized capped m^7GpppG(AG)10-FF/HCV/Ren or m^7GpppG(UC)10FF/HCV/Ren mRNA and 1 h later were exposed to the indicated concentrations of compounds for an additional 6 h. Following this, extracts were prepared using passive lysis buffer (PLB, Promega) and luciferase activity measured on a Berthold Lumt LB 9507 luminometer.
# FIGS. 26A-26B. In cellula activity of rocaglates. 26A. Cytotoxicity of rocaglates towards NIH/3T3 (grey circle) and the NIH/3T3 rocaglate-resistant line, eIF4A^em1JP(redtriangle). Cells were exposed to 40 nM compound for 4 days and viability was measured using the SRB assay. n=3±SD. 26B. Rocaglates show different sequence preferences for inhibiting cap-dependent translation in cellula. HEK 293 cells were transfected with 0.5 μg of in vitro synthesized capped (AG)10-FF/HCV/Ren or (UC)10-FF/HCV/Ren mRNA and 1h later exposed to the indicated concentrations of compounds for an additional 6 h, at which time extracts were prepared and luciferase activity measured. n=3 SD.
# FIG. 28. In cellula dose-response of (AG)10- and (UC)10-FF/HCV/Ren mRNAs to hippuristanol and pateamine. Firefly and renilla luciferase activity in response to the indicated compound concentrations (relative to DMSO controls) following mRNA transfections in 293 cells. n=3±SD.
# [3] = tested on: eIF4A-dependent translation; assay: in vitro translation assay, bicistronic FF/HCV/Ren reporter mRNA in Krebs-2 extracts; assay type: biochemical; settings: for pIC50 / translation inhibition (in words): bicistronic FF/HCV/Ren mRNA; for pIC50: FIG. 14/15, read-out: IC50, inhibition of cap-dependent translation (FF relative to REN)
# Description: Structure-Activity Relationships. With a number of amidino-rocaglates and amino-rocaglates in hand, we evaluated their inhibition of eIF4A-dependent translation using an in vitro assay as depicted in FIG. 14, where a bicistronic reporter mRNA was designed for translation in Krebs-2 extracts. In FIG. 14 the following description applies (a) IC50 was determined from fitted sigmoid curves; […] indicates the concentration of compound that inhibits cap-dependent translation by 50%, which was normalized by cap-independent translation. For its determination, the bicistronic reporter FF/HCV/Ren mRNA was used to produce Firefly luciferase (cap-dependent) and Renilla luciferase (cap-independent) in Krebs-2 extracts in the presence of indicated compounds at various concentrations. In particular, translation of Firefly luciferase (FF) is cap-dependent and depends on eIF4A activity; in contrast, translation of Renilla luciferase (REN) utilizes the HCV internal ribosome entry site (IRES) which functions independently of eIF4A. IC50's were determined by the inhibition of FF relative to REN obtained in the presence of compound relative to vehicle controls and normalized to REN as an internal control. […] In accordance with the eIF4A-RNA-rocaglamide (2) co-crystallographic analysis (FIG. 4), the amide carbonyl of 2 interacts with Gln195 of eIF4A as a H-bond acceptor, while the tertiary hydroxyl of 2 serves as a H-bond donor to an RNA base. […] To further verify the hypothesis, amidino-rocaglates (pKa of N—H˜26.7-30.7 in DMSO, strong H-bond donors) and amino-rocaglates (pKa of N—H˜36 to 44 in DMSO, weak H-bond donors) were next evaluated. […] Conversely, benzyl amidine 9e had IC50=60 nM, whereas the methylene tether may allow conformational adjustment to avoid rigid repulsion in the binding pocket.
# The rocaglate collection was also tested in in vitro translation assays using cell-free extracts with a previously described bicistronic mRNA containing the HCV IRES, which is not dependent on eIF4A activity and served as an internal control (FIG. 19C).
# as §1
# (§2) FIGS. 19A-19C. Rocaglate activity profiling. 19A. Assessing eIF4A1:poly r(AG)8 (SEQ ID NO: 2) RNA binding by FP in the presence of 10 μM rocaglate. Values are expressed relative to vehicle controls and data is rank ordered. n=3±SD. 19B. The change in polarization obtained with eIF4A1:poly r(AG)8 (SEQ ID NO: 2) and eIF4A2:poly r(AG)8 (SEQ ID NO: 2) RNA. Pearson r=0.814; p<0.0001. 19C. Inhibition of cap-dependent translation by rocaglates was measured using the indicated mRNA bicistronic reporter (4 ng/ul) in Krebs-2 extracts at a final compound concentration of 2 μM. n=3±SD.
# FIG. 35A-35E are plots showing dose-response curve of FF-HCV-Ren mRNA translation in Krebs extracts with IC50s shown for inhibition of cap-dependent protein synthesis. Values are plotted relative to DMSO controls. n=2 technical replicates performed in duplicate.
# [4] = target: T1, eIF4A1:poly r(AG)8 RNA (Homo sapiens, UniProt P60842); assay: fluorescence polarization (FP) assay, eIF4A1 binding to FAM-labelled RNA; settings: 500 nM eIF4A1, 10 nM FAM-labelled RNA, screen at 10 μM compound
# T1 construct: His6 (N); made in house; host or cells: E. coli BL21 (DE3)
# T1 sequence (P60842 whole entry, species assumed): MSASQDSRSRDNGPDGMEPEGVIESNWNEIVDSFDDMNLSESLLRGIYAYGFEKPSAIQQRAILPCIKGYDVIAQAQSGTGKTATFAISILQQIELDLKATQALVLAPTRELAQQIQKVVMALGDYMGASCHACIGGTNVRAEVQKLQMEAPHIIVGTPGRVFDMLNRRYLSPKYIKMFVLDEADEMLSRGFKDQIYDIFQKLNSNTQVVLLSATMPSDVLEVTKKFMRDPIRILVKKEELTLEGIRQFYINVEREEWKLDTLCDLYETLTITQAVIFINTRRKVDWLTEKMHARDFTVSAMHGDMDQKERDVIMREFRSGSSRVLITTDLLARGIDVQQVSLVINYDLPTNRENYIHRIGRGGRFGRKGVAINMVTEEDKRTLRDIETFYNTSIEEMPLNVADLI
# Description: Rocaglates similarly enhance RNA binding of eIF4A1 and eIF4A2. In order to rapidly evaluate the ability of rocaglates to stimulate binding of eIF4A to RNA, a fluorescence polarization (FP) assay using a FAM (fluorescein amidite)-labelled RNA probe (FIG. 18A) was used. […] Due to the high degree of shared amino acid identity between the two paralogs, their apparent similarity with respect to RNA binding activity and response to CR-1-31-B (23), and the fact that eIF4A1 is essential but eIF4A2 is not, eIF4A1 was used in the majority of our subsequent experiments.
# Fluorescence Polarization (FP) Assays. Unless otherwise specified, eIF4A (500 nM) was incubated with 10 nM FAM-labelled RNA for 30 min in FP buffer (14.4 mM HEPES-NaOH (pH 8), 108 mM NaCl, 1 mM MgCl2, 14.4% glycerol, 0.1% DMSO, 2 mM DTT, 1 mM AMPPNP) at room temperature in black low volume 384 well plates (Corning 3820). FP readings were performed on a Pherastar FS microplate reader (BMG Labtech).
# as §2
# FIG. 21. Assessing stimulation of eIF4A1:RNA binding by rocaglates and pateamine. FAM-labelled RNA was incubated in the presence of 500 nM eIF4A1 and the indicated concentrations of compound for 30 min, after which time FP measurements were taken. Limitations in WGD-57-591 availability prevented us from extending the titrations to 100 μM. The change in FP obtained relative to vehicle controls is presented. n=3±SD. FP results of competition assays in which preformed eIF4A1:rocaglate:FAM-poly r(AG)10 complexes were incubated in the presence of poly r(AG)10 (SEQ ID NO: 39) and dissociation measured as a function of time. n=3±SD.
smiles,measurement,setting,value
C[C@H]1C[C@@]2(O[C@H]3C[C@H]4[C@@H]5CC[C@H]6C[C@H](O)CC[C@]6(C)[C@H]5[C@@H](O)C[C@]4(C)[C@H]3[C@@]2(C)O)OC1(C)C [hippuristanol],inhibition of (AG)10 versus (UC)10 reporter in vitro (in words),[1],equally repressed cap-dependent translation from both
same,inhibition of (AG)10 versus (UC)10 reporter in cellula (in words),[2],inhibited both reporters equally
COC(=O)[C@@H]1[C@@H](c2ccccc2)[C@]2(c3ccc(OC)cc3)Oc3cc(OC)cc(OC)c3[C@@]23NC(Cc2ccccc2)=N[C@@]13O [9e],pIC50,[3],7.22
CCCCC1=N[C@@]2(O)[C@H](C(=O)OC)[C@@H](c3ccccc3)[C@]3(c4ccc(OC)cc4)Oc4cc(OC)cc(OC)c4[C@]23N1 [9d],pIC50,[3],6.73
COCCN[C@]12c3c(OC)cc(OC)cc3O[C@@]1(c1ccc(OC)cc1)[C@H](c1ccccc1)[C@@H](C(=O)N(C)C)[C@H]2O [compound 18],translation inhibition (in words),[3],no translation inhibition
COCCN[C@]12c3c(OC)cc(OC)cc3O[C@@]1(c1ccc(OC)cc1)[C@H](c1ccccc1)C[C@@H]2N [compound 22],translation inhibition (in words),[3],no translation inhibition
COCC1=N[C@@]2(O)[C@H](C(=O)OC)[C@@H](c3ccccc3)[C@]3(c4ccc(OC)cc4)Oc4cc(OC)cc(OC)c4[C@]23N1 [9k],pIC50,[3],7.19
COC(=O)[C@@H]1[C@@H](c2ccccc2)[C@]2(c3ccc(OC)cc3)Oc3cc(OC)cc(OC)c3[C@@]23NC(N)=N[C@@]13O [9j],pIC50,[3],6.90
CC(/C=C/C(C)=C/[C@@H]1Cc2nc(cs2)[C@@H](C)C[C@@H](N)CC(=O)O[C@@H](C)C/C(C)=C/C=C\C(=O)O1)=C\CN(C)C [pateamine A],stimulation of eIF4A1:RNA binding (in words),[4],potently induced binding to all RNA substrates tested
same,inhibition of (AG)10 versus (UC)10 reporter in vitro (in words),[1],equally repressed cap-dependent translation from both
same,inhibition of (AG)10 versus (UC)10 reporter in cellula (in words),[2],inhibited both reporters equally
COC(=O)[C@@H]1[C@@H](c2ccccc2)[C@]2(c3ccc(OC)cc3)Oc3cc(OC)cc(OC)c3[C@@]23NC(C(C)(C)C)=N[C@@]13O [9f],pIC50,[3],6.57
COc1ccc([C@@]23Oc4cc(OC)cc(OC)c4[C@@]24NC(C)=N[C@@]4(O)[C@H](C(=O)N(C)C)[C@H]3c2ccccc2)cc1 [9z],pIC50,[3],7.20
CONC(=O)[C@H]1[C@@H](O)[C@@]2(O)c3c(OC)cc(OC)cc3O[C@@]2(c2ccc(Br)cc2)[C@@H]1c1ccccc1 [SDS-1-021],inhibition of cap-dependent translation in vitro (in words),[3]; screen at 2 μM compound,the most potent compound
COCCN[C@]12c3c(OC)cc(OC)cc3O[C@@]1(c1ccc(OC)cc1)[C@H](c1ccccc1)C[C@@H]2O [compound 20],translation inhibition (in words),[3],no translation inhibition
COc1ccc([C@@]23Oc4cc(OC)cc(OC)c4[C@@]24NC(C)=N[C@@]4(O)[C@H](C(=O)N(C)OC)[C@H]3c2ccccc2)cc1 [9aa],pIC50,[3],7.23
